Measured values from patent US20250287947A1, “BIOCIDES AND ADHESIVE BINDING THEREOF” (EBERHARD KARLS UNIVERSITÄT TÜBINGEN MEDIZINISCHE FAKULTÄT, priority 2022, published 2025).

Experiments:
[1] = Modulation of the state of matter by salt concentration (Example 9); assay type: physicochemical; settings: 2% (w/v), pH 7 (HCl), NaCl 0.5 M to 3 M in water, room temperature
Excerpt: 2% (w/v) 5-N-carboxamido-2-pyrrolidone-N′-n-dodecyl propane-1,3-diamine (Py-C12) was adjusted with HCl to pH 7 and combined with different concentrations of NaCl ranging from 0.5 M to 3 M in water at room temperature. A clearly visible precipitate (white color) is observed at concentrations of 1.5 M or more (see FIG. 4).

[2] = tested on: β-galactosidase-expressing E. coli strain; assay: Wash resistance and biocidal activity of Py-C12 treated beech wood sheets (Example 19); assay type: cell-based; settings: treated with 1% (w/v) free base; washed with water up to 30 washing steps, 15 min each; E. coli 4 days at 37° C.
Method: In a first step, 1% (w/v) Py-C12 free base in water) was warmed to 50° C. to obtain a liquid solution. After incubation of beech wood sheets with the Py-C12 solution, the samples were cooled to room temperature upon which the liquid Py-C12 was converted into a solid phase and thus immobilized to the material. After drying, samples were washed with water at room temperature […] for 15 minutes each time. Thereafter, all samples were inoculated with a β-galactosidase-expressing E. coli strain and then incubated for 4 days at 37° C.

[3] = Modulation of the state of matter by pH shift using CO2 (Example 8); assay type: physicochemical
Excerpt: 1% (w/v) and 5% (w/v) 5-N-carboxamido-2-pyrrolidone-N-n-dodecyl propane-1,3-diamine (Py-C12) free base solutions in water were gassed with carbon dioxide to reduce the pH from 9.5 to 7. […] After degassing of the CO2-gassed solutions, Py-C12 precipitates due to the increasing pH in a time dependent manner (see FIG. 3, right panel).

[4] = tested on: Aspergillus brasiliensis; assay: Quantitative Suspension Test, modified DIN EN ISO 11930:2019 with organic load; assay type: cell-based; settings: 0.5% (w/v) Py-C12, pH 7.0, organic load, incubation 3 days
Method: (§1) In order to evaluate the bactericidal and fungicidal efficacy of Py-C12, Quantitative Suspension Tests were carried out under dirty conditions according to modified DIN EN ISO 11930:2019 with organic load using incubation periods of one and three days, respectively. For this purpose, 5-N-carboxamido-2-pyrrolidone-N-n-dodecyl propane-1,3-diamine (Py-C12) solutions were adjusted to pH 7.0 with HCl and subsequently diluted to corresponding test concentrations.

[5] = tested on: Staphylococcus aureus; assay: as above; assay type: cell-based; settings: 0.01% (w/v) Py-C12, pH 7.0, organic load, incubation 1 day
Method: as §1

[6] = tested on: Candida albicans; assay: as above; assay type: cell-based; settings: 0.025% (w/v) Py-C12, pH 7.0, organic load, incubation 1 day
Method: as §1

[7] = tested on: Pseudomonas aeruginosa; assay: as above; assay type: cell-based; settings: 0.025% (w/v) Py-C12, pH 7.0, organic load, incubation 1 day
Method: as §1

[8] = tested on: Escherichia coli; assay: as above; assay type: cell-based; settings: 0.025% (w/v) Py-C12, pH 7.0, organic load, incubation 1 day
Method: as §1

[9] = Influence of temperature on the state of matter of Py-C12 free base at different concentrations in water (Example 4); assay type: physicochemical; design: key: X: liquid; o: solid
Method: 5-N-carboxamido-2-pyrrolidone-N-n-dodecyl propane-1,3-diamine (Py-C12) free base at concentrations of 1% (w/v), 2.5% (w/V), 5% (w/V), 10% (w/V), 20% (w/), 30% (W/), 40% (w/V) were incubated at temperatures between 36° C. and 50° C. (see table 4).

[10] = Modulation of the state of matter by pH shift using HCl and NaOH (Example 7); assay type: physicochemical
[11] = Modulation of the state of matter by temperature shift (Example 10); assay type: physicochemical; settings: 1% and 5% (w/v) free base in water

For `CCCCCCCCCCCCNCCCNC(=O)C1CCC(=O)N1` (stereo not drawn) [Py-C12, 5-N-carboxamido-2-pyrrolidone-N′-n-dodecyl propane-1,3-diamine], the “NaCl concentration at which a clearly visible precipitate is observed” value [1] was at least 1.5 M, the “bacterial growth on treated beech wood sheets after washing” value [2] was “Blue coloured bacteria only appear on control sample” and the solubility in water ([3]; 1% and 5% (w/v) free base gassed with CO2, pH from 9.5 to 7, room temperature) was “completely soluble”. The “state of matter after degassing” value ([3]; 1% and 5% (w/v), after degassing of CO2, increasing pH, time dependent) was “precipitates”, the “Germ reduction factor log10” value [4] was 4.6 log10 and the “Germ reduction factor log10” value [5] was at least 5.6 log10. For the same compound, the “Germ reduction factor log10” value [6] was 4.2 log10, the “Germ reduction factor log10” value [7] was at least 5.6 log10 and the “Germ reduction factor log10” value [8] was at least 5.5 log10. For the same compound, the state of matter ([9]; free base 1% (w/v) in water, 36° C.) was “o”, the state of matter ([9]; free base 1% (w/v) in water, 38° C.) was “o” and the state of matter ([9]; free base 1% (w/v) in water, 40° C.) was “X”. For the same compound, the state of matter ([9]; free base 1% (w/v) in water, 42° C.) was “X”, the state of matter ([9]; free base 1% (w/v) in water, 44° C.) was “X” and the state of matter ([9]; free base 1% (w/v) in water, 46° C.) was “X”. For the same compound, the state of matter ([9]; free base 1% (w/v) in water, 48° C.) was “X”, the state of matter ([9]; free base 1% (w/v) in water, 50° C.) was “X” and the state of matter ([9]; free base 2.5% (w/v) in water, 36° C.) was “o”. For the same compound, the state of matter ([9]; free base 2.5% (w/v) in water, 38° C.) was “o”, the state of matter ([9]; free base 2.5% (w/v) in water, 40° C.) was “X” and the state of matter ([9]; free base 2.5% (w/v) in water, 42° C.) was “X”. For the same compound, the state of matter ([9]; free base 2.5% (w/v) in water, 44° C.) was “X”, the state of matter ([9]; free base 2.5% (w/v) in water, 46° C.) was “X” and the state of matter ([9]; free base 2.5% (w/v) in water, 48° C.) was “X”. For the same compound, the state of matter ([9]; free base 2.5% (w/v) in water, 50° C.) was “X”, the state of matter ([9]; free base 5% (w/v) in water, 36° C.) was “o” and the state of matter ([9]; free base 5% (w/v) in water, 38° C.) was “o”. For the same compound, the state of matter ([9]; free base 5% (w/v) in water, 40° C.) was “X”, the state of matter ([9]; free base 5% (w/v) in water, 42° C.) was “X” and the state of matter ([9]; free base 5% (w/v) in water, 44° C.) was “X”. For the same compound, the state of matter ([9]; free base 5% (w/v) in water, 46° C.) was “X”, the state of matter ([9]; free base 5% (w/v) in water, 48° C.) was “X” and the state of matter ([9]; free base 5% (w/v) in water, 50° C.) was “X”. For the same compound, the state of matter ([9]; free base 10% (w/v) in water, 36° C.) was “o”, the state of matter ([9]; free base 10% (w/v) in water, 38° C.) was “o” and the state of matter ([9]; free base 10% (w/v) in water, 40° C.) was “X”. The state of matter ([9]; free base 10% (w/v) in water, 42° C.) was “X”, the state of matter ([9]; free base 10% (w/v) in water, 44° C.) was “X” and the state of matter ([9]; free base 10% (w/v) in water, 46° C.) was “X”. For the same compound, the state of matter ([9]; free base 10% (w/v) in water, 48° C.) was “X”, the state of matter ([9]; free base 10% (w/v) in water, 50° C.) was “X” and the state of matter ([9]; free base 20% (w/v) in water, 36° C.) was “o”. The state of matter ([9]; free base 20% (w/v) in water, 38° C.) was “o”, the state of matter ([9]; free base 20% (w/v) in water, 40° C.) was “o” and the state of matter ([9]; free base 20% (w/v) in water, 42° C.) was “o”. The state of matter ([9]; free base 20% (w/v) in water, 44° C.) was “X”, the state of matter ([9]; free base 20% (w/v) in water, 46° C.) was “X” and the state of matter ([9]; free base 20% (w/v) in water, 48° C.) was “X”. The state of matter ([9]; free base 20% (w/v) in water, 50° C.) was “X”, the state of matter ([9]; free base 30% (w/v) in water, 36° C.) was “o” and the state of matter ([9]; free base 30% (w/v) in water, 38° C.) was “o”. The state of matter ([9]; free base 30% (w/v) in water, 40° C.) was “o”, the state of matter ([9]; free base 30% (w/v) in water, 42° C.) was “o” and the state of matter ([9]; free base 30% (w/v) in water, 44° C.) was “X”. For the same compound, the state of matter ([9]; free base 30% (w/v) in water, 46° C.) was “X”, the state of matter ([9]; free base 30% (w/v) in water, 48° C.) was “X” and the state of matter ([9]; free base 30% (w/v) in water, 50° C.) was “X”. The state of matter ([9]; free base 40% (w/v) in water, 36° C.) was “o”, the state of matter ([9]; free base 40% (w/v) in water, 38° C.) was “o” and the state of matter ([9]; free base 40% (w/v) in water, 40° C.) was “o”. For the same compound, the state of matter ([9]; free base 40% (w/v) in water, 42° C.) was “o”, the state of matter ([9]; free base 40% (w/v) in water, 44° C.) was “X” and the state of matter ([9]; free base 40% (w/v) in water, 46° C.) was “X”. For the same compound, the state of matter ([9]; free base 40% (w/v) in water, 48° C.) was “X”, the state of matter ([9]; free base 40% (w/v) in water, 50° C.) was “X” and the solubility in water ([10]; 1% (w/v) free base adjusted with HCl to pH 7, room temperature) was “completely soluble”. For the same compound, the “state of matter after pH increase” value ([10]; 1% (w/v), NaOH added to increase pH above 9.0, time dependent) was “started to precipitate”, the solubility in water ([11]; 50° C.) was “completely soluble” and the state of matter ([11]; room temperature) was “readily precipitated”.
